Measured values: PubChem BioAssay AID1259407 (Chemical Carcinogenesis Research Information System (CCRIS), 2018)
Activity calls are given as the source filed them. The rule behind the calls is not given here.

Tested on: CCRIS mutagenicity, Ames/micronucleus/aberration tests
Experiment: CCRIS mutagenicity studies
[1] = Test System: AMES SALMONELLA TYPHIMURIUM, Strain/Indicator: TA100, Metabolic Activation: NONE, Method: STANDARD PLATE
[2] = Test System: AMES SALMONELLA TYPHIMURIUM, Strain/Indicator: TA100, Metabolic Activation: RAT, LIVER, S-9, AROCLOR 1254, Method: STANDARD PLATE

For CC(=O)O[C@]1(C)C(=O)OC/C2=C/CN(C)CC[C@@H](OC(=O)C3(C[C@H]1C)O[C@@H]3C)C2=O (stereo not given in full), the mutagenic call (Test System: UDS RAT HEPATOCYTES, Strain/Indicator: THY INCORP, Metabolic Activation: NONE, Method: AUTORADIOGRAPHY) was “active; positive”.

In the case of CNCc1ccc(CSCCNC(=NCC(O)c2ccc(O)cc2)NS(C)(=O)=O)o1 (stereo not given), the mutagenic call (Test System: AMES SALMONELLA TYPHIMURIUM, Strain/Indicator: TA98, Metabolic Activation: NONE, Method: PREINCUBATION) is reported as “inactive; negative”, the mutagenic call (Test System: AMES SALMONELLA TYPHIMURIUM, Strain/Indicator: TA98, Metabolic Activation: RAT LIVER S-9, PHENOBARBITAL AND 5,6-BENZOFLAVONE, Method: PREINCUBATION) is reported as “inactive; negative” and the mutagenic call (Test System: AMES SALMONELLA TYPHIMURIUM, Strain/Indicator: TA100, Metabolic Activation: NONE, Method: PREINCUBATION) is reported as “inactive; negative”. For the same compound, the mutagenic call (Test System: AMES SALMONELLA TYPHIMURIUM, Strain/Indicator: TA100, Metabolic Activation: RAT LIVER S-9, PHENOBARBITAL AND 5,6-BENZOFLAVONE, Method: PREINCUBATION) was “inactive; negative”, the mutagenic call (Test System: AMES SALMONELLA TYPHIMURIUM, Strain/Indicator: TA1535, Metabolic Activation: NONE, Method: PREINCUBATION) was “inactive; negative” and the mutagenic call (Test System: AMES SALMONELLA TYPHIMURIUM, Strain/Indicator: TA1535, Metabolic Activation: RAT LIVER S-9, PHENOBARBITAL AND 5,6-BENZOFLAVONE, Method: PREINCUBATION) was “inactive; negative”. The mutagenic call (Test System: AMES SALMONELLA TYPHIMURIUM, Strain/Indicator: TA1537, Metabolic Activation: NONE, Method: PREINCUBATION) was “inactive; negative”, the mutagenic call (Test System: AMES SALMONELLA TYPHIMURIUM, Strain/Indicator: TA1537, Metabolic Activation: RAT LIVER S-9, PHENOBARBITAL AND 5,6-BENZOFLAVONE, Method: PREINCUBATION) was “inactive; negative” and the mutagenic call (Test System: E.COLI, Strain/Indicator: WP2 UVRA, Metabolic Activation: NONE, Method: PREINCUBATION) was “inactive; negative”. For the same compound, the mutagenic call (Test System: E.COLI, Strain/Indicator: WP2 UVRA, Metabolic Activation: RAT LIVER S-9, PHENOBARBITAL AND 5,6-BENZOFLAVONE, Method: PREINCUBATION) was “inactive; negative”.

With CC(=O)CC(C)(C)O the mutagenic call (Test System: AMES SALMONELLA TYPHIMURIUM, Strain/Indicator: TA98, Metabolic Activation: HAMSTER, LIVER, S-9, AROCLOR 1254, Method: STANDARD PLATE) was “inactive; negative”, the mutagenic call (Test System: AMES SALMONELLA TYPHIMURIUM, Strain/Indicator: TA98, Metabolic Activation: NONE, Method: STANDARD PLATE) was “inactive; negative” and the mutagenic call (Test System: AMES SALMONELLA TYPHIMURIUM, Strain/Indicator: TA98, Metabolic Activation: RAT, LIVER, S-9, AROCLOR 1254, Method: STANDARD PLATE) was “inactive; negative”. For the same compound, the mutagenic call (Test System: AMES SALMONELLA TYPHIMURIUM, Strain/Indicator: TA100, Metabolic Activation: HAMSTER, LIVER, S-9, AROCLOR 1254, Method: STANDARD PLATE) was “inactive; negative”, the mutagenic call [1] was “inactive; negative” and the mutagenic call [2] was “inactive; negative”. The mutagenic call (Test System: AMES SALMONELLA TYPHIMURIUM, Strain/Indicator: TA1535, Metabolic Activation: HAMSTER, LIVER, S-9, AROCLOR 1254, Method: STANDARD PLATE) was “inactive; negative”, the mutagenic call (Test System: AMES SALMONELLA TYPHIMURIUM, Strain/Indicator: TA1535, Metabolic Activation: NONE, Method: STANDARD PLATE) was “inactive; negative” and the mutagenic call (Test System: AMES SALMONELLA TYPHIMURIUM, Strain/Indicator: TA1535, Metabolic Activation: RAT, LIVER, S-9, AROCLOR 1254, Method: STANDARD PLATE) was “inactive; negative”. The mutagenic call (Test System: AMES SALMONELLA TYPHIMURIUM, Strain/Indicator: TA1537, Metabolic Activation: HAMSTER, LIVER, S-9, AROCLOR 1254, Method: STANDARD PLATE) was “inactive; negative”, the mutagenic call (Test System: AMES SALMONELLA TYPHIMURIUM, Strain/Indicator: TA1537, Metabolic Activation: NONE, Method: STANDARD PLATE) was “inactive; negative” and the mutagenic call (Test System: AMES SALMONELLA TYPHIMURIUM, Strain/Indicator: TA1537, Metabolic Activation: RAT, LIVER, S-9, AROCLOR 1254, Method: STANDARD PLATE) was “inactive; negative”. For the same compound, the mutagenic call (Test System: AMES SALMONELLA TYPHIMURIUM, Strain/Indicator: TA1538, Metabolic Activation: HAMSTER, LIVER, S-9, AROCLOR 1254, Method: STANDARD PLATE) was “inactive; negative”, the mutagenic call (Test System: AMES SALMONELLA TYPHIMURIUM, Strain/Indicator: TA1538, Metabolic Activation: NONE, Method: STANDARD PLATE) was “inactive; negative” and the mutagenic call (Test System: AMES SALMONELLA TYPHIMURIUM, Strain/Indicator: TA1538, Metabolic Activation: RAT, LIVER, S-9, AROCLOR 1254, Method: STANDARD PLATE) was “inactive; negative”. For the same compound, the mutagenic call (Test System: Mouse lymphoma, Strain/Indicator: L5178Y (tk+/tk-), Metabolic Activation: None, Method: Suspension/plate) was “inactive; negative” and the mutagenic call (Test System: Mouse lymphoma, Strain/Indicator: L5178Y (tk+/tk-), Metabolic Activation: Rat, Liver, S-9, Aroclor 1254, Method: Suspension/plate) was “inactive; negative”.

With CN(C)S(=O)(=O)CCNC(=O)N(CCCl)N=O the mutagenic call [1] was “active; positive” and the mutagenic call [2] was “active; positive”.
